Assay results from ChEMBL document CHEMBL3243990, “Hydantoins as antitumor agents” (1977).
Activity calls are given as the source filed them. The rule behind the calls is not given here.

Tests used:
[1] = system: L1210; assay: Antitumor activity against mouse L1210 cells allografted in mouse relative to control; type: functional, cell-based
[2] = system: P388; assay: Antitumor activity against mouse P388 cells allografted in mouse relative to control; type: functional

Row | Compound | Activity [1] | Activity [2] | T/C [2] [%]
1 | CC(=O)N1C(=O)NC(=O)C1(C)c1ccc(Cl)s1 (centres undefined) | inactive |  | 
2 | CC(=O)N1C(=O)N(Cl)C(=O)C1(C)c1cccs1 (centres undefined) | inactive |  | 
3 | O=C(CCl)N1C(=O)NC(c2ccc(Cl)cc2)(c2ccc(Cl)cc2)C1=O | inactive | inactive | 
4 | O=C1N(Cl)C(=O)C(c2ccc(C(F)(F)F)cc2)(c2ccc(C(F)(F)F)cc2)N1Cl | inactive | inactive | 
5 | CC1(c2ccco2)NC(=O)NC1=O (centres undefined) | inactive |  | 
6 | O=C1NC(=O)C(c2cccs2)(c2cccs2)N1 | inactive |  | 
7 | CC1(c2ccco2)NC(=O)N(C(=O)CCl)C1=O (centres undefined) | inactive |  | 
8 | CC1(c2ccc(Cl)s2)NC(=O)NC1=O (centres undefined) | inactive |  | 
9 | CC(=O)N1C(=O)NC(=O)C1(C)c1cccs1 (centres undefined) | inactive |  | 
10 | O=C1N(Cl)C(=O)C(c2ccc(Cl)cc2)(c2ccc(Cl)cc2)N1Cl | inactive |  | 190
11 | CC(=O)N1C(=O)NC(=O)C1(c1ccc(Cl)cc1)c1ccc(Cl)cc1 | inactive | inactive | 
12 | CC1(c2cccs2)NC(=O)NC1=O (centres undefined) | inactive |  | 
13 | CC(=O)N1C(=O)N(Cl)C(=O)C1(c1ccc(Cl)cc1)c1ccc(Cl)cc1 | inactive | inactive | 
14 | CN1C(=O)NC(C)(c2cccs2)C1=O (centres undefined) | inactive |  | 
15 | CC(=O)N1C(=O)NC(c2ccc(Cl)cc2)(c2ccc(Cl)cc2)C1=O | inactive | inactive | 
16 | O=C1NC(=O)C(c2ccc(C(F)(F)F)cc2)(c2ccc(C(F)(F)F)cc2)N1 | inactive | inactive | 
17 | CC1(c2ccc(Cl)s2)C(=O)N(Cl)C(=O)N1Cl (centres undefined) | inactive |  | 
18 | O=C1NC(=O)C2(CSSC2)N1 | inactive |  | 
19 | CC1(c2ccco2)NC(=O)N(Cl)C1=O (centres undefined) | inactive |  | 
20 | CC1(c2cccs2)C(=O)N(Cl)C(=O)N1Cl (centres undefined) | inactive |  | 
21 | CC1(c2cccs2)NC(=O)N(Cl)C1=O (centres undefined) | inactive |  | 
22 | O=C1NC(c2cccs2)(c2cccs2)C(=O)N1Cl | inactive |  | 
23 | CN1C(=O)NC(c2ccc(Cl)cc2)(c2ccc(Cl)cc2)C1=O | inactive | inactive | 
24 | O=C1NC(=O)C(c2ccc(Cl)cc2)(c2ccc(Cl)cc2)N1 | inactive |  | 
25 | CC(=O)N1C(=O)NC(=O)C1(C)c1ccco1 (centres undefined) | inactive |  | 
26 | CC1(c2cccs2)NC(=O)N(C(=O)CCl)C1=O (centres undefined) | inactive |  | 
